The target of this assay is PDGFRβ (Rattus norvegicus (Rat), UniProt Q05030). In words: PDGFRβ Cellular Assay (PDGFRb P-Y751 HTRF in A10 cells stimulated with PDGF-BB). Format: cell-based. The gist of the method:
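Phospho-Y751 PDGFRβ was measured by HTRF in lysates of A10 rat cells. Cells received compound for 3 hours before PDGF-BB stimulation (100 ng/mL working stock).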

Molecules are shown by their SMILES. Where two headings read alike, the source gives them in different places.

In patent US20240109917A1 (ACTELION PHARMACEUTICALS LTD, priority 2020, published 2024) one finds IC50 data, which are given here for 27 compounds.

PDGFRβ, sequence (Q05030 32-1097): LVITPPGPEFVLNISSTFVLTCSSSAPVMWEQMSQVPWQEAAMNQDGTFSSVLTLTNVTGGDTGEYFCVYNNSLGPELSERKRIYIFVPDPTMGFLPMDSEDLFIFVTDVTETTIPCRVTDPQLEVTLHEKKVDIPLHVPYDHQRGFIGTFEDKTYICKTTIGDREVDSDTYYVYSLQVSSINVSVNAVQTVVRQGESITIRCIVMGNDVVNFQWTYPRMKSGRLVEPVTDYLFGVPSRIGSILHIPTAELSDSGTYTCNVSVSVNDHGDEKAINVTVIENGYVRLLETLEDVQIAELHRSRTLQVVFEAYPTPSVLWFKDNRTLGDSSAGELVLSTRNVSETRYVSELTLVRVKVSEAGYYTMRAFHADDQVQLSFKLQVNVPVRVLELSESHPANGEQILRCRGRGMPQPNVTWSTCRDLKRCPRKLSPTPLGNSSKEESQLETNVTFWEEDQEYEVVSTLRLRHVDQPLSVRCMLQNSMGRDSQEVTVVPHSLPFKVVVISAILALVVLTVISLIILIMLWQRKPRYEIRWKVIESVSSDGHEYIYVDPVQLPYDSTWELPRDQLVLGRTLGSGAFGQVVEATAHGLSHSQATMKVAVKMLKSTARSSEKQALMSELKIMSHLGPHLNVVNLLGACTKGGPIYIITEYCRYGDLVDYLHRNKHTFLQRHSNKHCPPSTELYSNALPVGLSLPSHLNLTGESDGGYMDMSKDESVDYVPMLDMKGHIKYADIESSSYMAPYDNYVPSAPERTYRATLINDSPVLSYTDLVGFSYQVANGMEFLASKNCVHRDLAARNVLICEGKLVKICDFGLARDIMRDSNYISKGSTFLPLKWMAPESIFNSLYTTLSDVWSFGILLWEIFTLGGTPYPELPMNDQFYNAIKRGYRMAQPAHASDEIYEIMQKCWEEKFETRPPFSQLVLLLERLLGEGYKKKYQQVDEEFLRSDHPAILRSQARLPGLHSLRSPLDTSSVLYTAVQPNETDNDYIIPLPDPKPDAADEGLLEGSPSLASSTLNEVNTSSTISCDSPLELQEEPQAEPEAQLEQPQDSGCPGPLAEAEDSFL

`Cc1ncc(C(=O)NCCN2CCCC2(C)C)cc1NC(=O)c1cnn2cc(-c3cnn(Cc4cc(OCc5ccccc5)no4)c3)sc12` [Example 362, 2-(1-((3-(benzyloxy)isoxazol-5-yl)methyl)-1H-pyrazol-4-yl)-N-(5-((2-(2,2-dimethylpyrrolidin-1-yl)ethyl)carbamoyl)-2-methylpyridin-3-yl)pyrazolo[5,1-b]thiazole-7-carboxamide]: the IC50 (read-out: PDGFR Cellular IC50) was determined as 62.3 nM. On to `Cc1ncc(C(=O)NCCN2CCCC2(C)C)cc1NC(=O)c1cnn2cc(-c3cnn(Cc4cc(O)no4)c3)sc12` [Example 363, N-(5-((2-(2,2-dimethylpyrrolidin-1-yl)ethyl)carbamoyl)-2-methylpyridin-3-yl)-2-(1-((3-hydroxyisoxazol-5-yl)methyl)-1H-pyrazol-4-yl)pyrazolo[5,1-b]thiazole-7-carboxamide], for which the IC50 (read-out: PDGFR Cellular IC50) is over 2000 nM. Turning to `Cc1ncc(NC(=O)CN2C[C@H](C)O[C@@H](C)C2)cc1NC(=O)c1cnn2cc(-c3cc[nH]c3)sc12` [Example 365, N-(5-(2-(2,6-trans-dimethylmorpholino)acetamido)-2-methylpyridin-3-yl)-2-(1H-pyrrol-3-yl)pyrazolo[5,1-b]thiazole-7-carboxamide], the IC50 (read-out: PDGFR Cellular IC50) came out at 4.8 nM. In the case of `Cc1ncc(NC(=O)CN2CC3CCC(C2)O3)cc1NC(=O)c1cnn2cc(-c3cc[nH]c3)sc12` [Example 366, N-(5-(2-(8-oxa-3-azabicyclo[3.2.1]octan-3-yl)acetamido)-2-methylpyridin-3-yl)-2-(1H-pyrrol-3-yl)pyrazolo[5,1-b]thiazole-7-carboxamide], for the setting “read-out: PDGFR Cellular IC50”, the IC50 was found to be 7.7 nM. Turning to `COc1ncccc1-c1cn2ncc(C(=O)Nc3cc(NC(=O)CN4CC(C)(C)C4)cnc3C)c2s1` [Example 369, N-(5-(2-(3,3-dimethylazetidin-1-yl)acetamido)-2-methylpyridin-3-yl)-2-(2-methoxypyridin-3-yl)pyrazolo[5,1-b]thiazole-7-carboxamide], the IC50 (read-out: PDGFR Cellular IC50) came out at 1.6 nM.

As for `Cc1ncc(NC(=O)CN2C[C@H](CO)OC(C)(C)C2)cc1NC(=O)c1cnn2cc(-c3cnn(C)c3)sc12` [Example 376, (R)—N-(5-(2-(6-(hydroxymethyl)-2,2-dimethylmorpholino)acetamido)-2-methylpyridin-3-yl)-2-(1-methyl-1H-pyrazol-4-yl)pyrazolo[5,1-b]thiazole-7-carboxamide], the IC50 (read-out: PDGFR Cellular IC50) was 154 nM.

Consider `Cc1ncc(NC(=O)CN2C[C@@H](CO)OC(C)(C)C2)cc1NC(=O)c1cnn2cc(-c3cnn(C)c3)sc12` [Example 377, (S)—N-(5-(2-(6-(hydroxymethyl)-2,2-dimethylmorpholino)acetamido)-2-methylpyridin-3-yl)-2-(1-methyl-1H-pyrazol-4-yl)pyrazolo[5,1-b]thiazole-7-carboxamide], for which the IC50 (read-out: PDGFR Cellular IC50) came to 119 nM. Regarding `COc1ncccc1-c1cn2ncc(C(=O)Nc3cc(NC(=O)CN4C[C@H](CO)OC(C)(C)C4)cnc3C)c2s1` [Example 379, (R)—N-(5-(2-(6-(hydroxymethyl)-2,2-dimethylmorpholino)acetamido)-2-methylpyridin-3-yl)-2-(2-methoxypyridin-3-yl)pyrazolo[5,1-b]thiazole-7-carboxamide], the IC50 (read-out: PDGFR Cellular IC50) turned out to be 9.2 nM. The same measure, in the same setting: the same measure for `COc1ncccc1-c1cn2ncc(C(=O)Nc3cc(NC(=O)CN4C[C@@H](CO)OC(C)(C)C4)cnc3C)c2s1` [Example 380, (S)—N-(5-(2-(6-(hydroxymethyl)-2,2-dimethylmorpholino)acetamido)-2-methylpyridin-3-yl)-2-(2-methoxypyridin-3-yl)pyrazolo[5,1-b]thiazole-7-carboxamide]: 9.8 nM; for `COCC1CN(CC(=O)Nc2cnc(C)c(NC(=O)c3cnn4cc(-c5cnn(C)c5)sc34)c2)CC(C)(C)O1` (stereo not drawn) [Example 383, N-(5-(2-(6-(methoxymethyl)-2,2-dimethylmorpholino)acetamido)-2-methylpyridin-3-yl)-2-(1-methyl-1H-pyrazol-4-yl)pyrazolo[5,1-b]thiazole-7-carboxamide]: 15 nM; for `COc1ncccc1-c1cn2ncc(C(=O)Nc3cc(C(=O)NCCN4CC(C)(C)C4)cnc3C)c2s1` [Example 387, N-(5-((2-(3,3-dimethylazetidin-1-yl)ethyl)carbamoyl)-2-methylpyridin-3-yl)-2-(2-methoxypyridin-3-yl)pyrazolo[5,1-b]thiazole-7-carboxamide]: 6.9 nM. Still for that read-out and setting: the same measure for `CCn1nccc1-c1cn2ncc(C(=O)Nc3cc(NC(=O)CN4CC(C)(C)C4)cnc3C)c2s1` [Example 388, N-(5-(2-(3,3-dimethylazetidin-1-yl)acetamido)-2-methylpyridin-3-yl)-2-(1-ethyl-1H-pyrazol-5-yl)pyrazolo[5,1-b]thiazole-7-carboxamide]: 5.1 nM; for `Cc1cnn(C)c1-c1cn2ncc(C(=O)Nc3cc(NC(=O)CN4CC(C)(C)C4)cnc3C)c2s1` [Example 389, 2-(1,4-dimethyl-1H-pyrazol-5-yl)-N-(5-(2-(3,3-dimethylazetidin-1-yl)acetamido)-2-methylpyridin-3-yl)pyrazolo[5,1-b]thiazole-7-carboxamide]: 3.1 nM; for `Cc1ncc(NC(=O)CN2CC(C)(C)C2)cc1NC(=O)c1cnn2cc(-c3cccnc3C)sc12` [Example 390, N-(5-(2-(3,3-dimethylazetidin-1-yl)acetamido)-2-methylpyridin-3-yl)-2-(2-methylpyridin-3-yl)pyrazolo[5,1-b]thiazole-7-carboxamide]: 5.5 nM. For `CCc1ncccc1-c1cn2ncc(C(=O)Nc3cc(NC(=O)CN4CC(C)(C)C4)cnc3C)c2s1` [Example 391, N-(5-(2-(3,3-dimethylazetidin-1-yl)acetamido)-2-methylpyridin-3-yl)-2-(2-ethylpyridin-3-yl)pyrazolo[5,1-b]thiazole-7-carboxamide], the IC50 (read-out: PDGFR Cellular IC50) was determined as 10.4 nM. Take `COc1ncc(-c2cn3ncc(C(=O)Nc4cc(NC(=O)CN5CC(C)(C)C5)cnc4C)c3s2)c(OC)n1` [Example 392, 2-(2,4-dimethoxypyrimidin-5-yl)-N-(5-(2-(3,3-dimethylazetidin-1-yl)acetamido)-2-methylpyridin-3-yl)pyrazolo[5,1-b]thiazole-7-carboxamide]: under “PDGFR Cellular IC50”, the IC50 was found to be 4.8 nM.

Take `COc1cc(-c2cn3ncc(C(=O)Nc4cc(NC(=O)CN5CC(C)(C)C5)cnc4C)c3s2)c(OC)nn1` [Example 393, 2-(3,6-dimethoxypyridazin-4-yl)-N-(5-(2-(3,3-dimethylazetidin-1-1)acetamido)-2-methylpyridin-3-yl)pyrazolo[5,1-b]thiazole-7-carboxamide]: the IC50 (read-out: PDGFR Cellular IC50) amounted to 3.5 nM.

`COc1cccc(-c2cn3ncc(C(=O)Nc4cc(NC(=O)CN5CC(C)(C)C5)cnc4C)c3s2)n1` [Example 394, N-(5-(2-(3,3-dimethylazetidin-1-yl)acetamido)-2-methylpyridin-3-yl)-2-(6-methoxypyridin-2-yl)pyrazolo[5,1-b]thiazole-7-carboxamide]: the IC50 (read-out: PDGFR Cellular IC50) is 1.8 nM. As for `COc1ccc(-c2cn3ncc(C(=O)Nc4cc(NC(=O)CN5CC(C)(C)C5)cnc4C)c3s2)cn1` [Example 395, N-(5-(2-(3,3-dimethylazetidin-1-yl)acetamido)-2-methylpyridin-3-yl)-2-(6-methoxypyridin-3-yl)pyrazolo[5,1-b]thiazole-7-carboxamide], under “read-out: PDGFR Cellular IC50”, the IC50 came out at 6.2 nM. Take `COc1ncccc1-c1cn2ncc(C(=O)Nc3cc(NC(=O)CN4CC(C)(OC)C4)cnc3C)c2s1` [Example 396, N-(5-(2-(3-methoxy-3-methylazetidin-1-yl)acetamido)-2-methylpyridin-3-yl)-2-(2-methoxypyridin-3-yl)pyrazolo[5,1-b]thiazole-7-carboxamide]: the IC50 (read-out: PDGFR Cellular IC50) amounted to 4.3 nM. `COc1ncccc1-c1cn2ncc(C(=O)Nc3cc(NC(=O)CN4CCC4)cnc3C)c2s1` [Example 397, N-(5-(2-(azetidin-1-yl)acetamido)-2-methylpyridin-3-yl)-2-(2-methoxypyridin-3-yl)pyrazolo[5,1-b]thiazole-7-carboxamide] showed an IC50 (PDGFR Cellular IC50) of 7.6 nM. For `Cc1ncc(NC(=O)CN2CC(C)(C)C2)cc1NC(=O)c1cnn2cc(-c3cncnc3C)sc12` [Example 398, N-(5-(2-(3,3-dimethylazetidin-1-yl)acetamido)-2-methylpyridin-3-yl)-2-(4-methylpyrimidin-5-yl)pyrazolo[5,1-b]thiazole-7-carboxamide], the IC50 (read-out: PDGFR Cellular IC50) stood at 169 nM. The same measure, in the same setting: the same measure for `COc1cnccc1-c1cn2ncc(C(=O)Nc3cc(NC(=O)CN4CC(C)(C)C4)cnc3C)c2s1` [Example 399, N-(5-(2-(3,3-dimethylazetidin-1-yl)acetamido)-2-methylpyridin-3-yl)-2-(3-methoxypyridin-4-yl)pyrazolo[5,1-b]thiazole-7-carboxamide]: 1.3 nM. On the same count and under the same terms, to `COc1ncccc1-c1cn2ncc(C(=O)Nc3cc(NC(=O)CN4CC(F)C4)cnc3C)c2s1` [Example 402, N-(5-(2-(3-fluoroazetidin-1-yl)acetamido)-2-methylpyridin-3-yl)-2-(2-methoxypyridin-3-yl)pyrazolo[5,1-b]thiazole-7-carboxamide] belongs 5.4 nM; to `COc1ncccc1-c1cn2ncc(C(=O)Nc3cc(NC(=O)CN4CC5(CCOCC5)C4)cnc3C)c2s1` [Example 403, N-(5-(2-(7-oxa-2-azaspiro[3.5]nonan-2-yl)acetamido)-2-methylpyridin-3-yl)-2-(2-methoxypyridin-3-yl)pyrazolo[5,1-b]thiazole-7-carboxamide carboxamide], 3.3 nM.

Turning to `COc1ncccc1-c1cn2ncc(C(=O)Nc3cc(NC(=O)CN4CC5(COC5)C4)cnc3C)c2s1` [Example 404, N-(5-(2-(2-oxa-6-azaspiro[3.3]heptan-6-yl)acetamido)-2-methylpyridin-3-yl)-2-(2-methoxypyridin-3-yl)pyrazolo[5,1-b]thiazole-7-carboxamide], the IC50 (read-out: PDGFR Cellular IC50) was found to be 7.2 nM. As for `COc1ncccc1-c1cn2ncc(C(=O)Nc3cc(NC(=O)CN4CC(C)C4)cnc3C)c2s1` [Example 405, 2-(2-methoxypyridin-3-yl)-N-(2-methyl-5-(2-(3-methylazetidin-1-yl)acetamido)pyridin-3-yl)pyrazolo[5,1-b]thiazole-7-carboxamide], for the setting “read-out: PDGFR Cellular IC50”, the IC50 was 3.8 nM.
